Source: ChEMBL document CHEMBL5335824, “Research progress of LSD1-based dual-target agents for cancer therapy” (Bioorg Med Chem, 2024)
pIC50: −log10 of the molar value.

Legend:
Jurkat = assay: Antiproliferative activity against human Jurkat cells assessed as reduction in cell viability incubated for 48 hrs by cell titer-glo assay; type: functional, cell-based
MOLM-13 = assay: Antiproliferative activity against human MOLM-13 assessed as reduction in cell growth incubated for 48 hrs by MTT assay; type: functional, cell-based; settings: MOLM-13, 48 h
THP-1 = assay: Antiproliferative activity against human THP-1 cells incubated for 24 hrs by trypan blue reagent based analysis; type: functional, cell-based; settings: THP-1, 24 h
K562 = assay: Antiproliferative activity against human K562 assessed as reduction in cell growth incubated for 48 hrs by MTT assay; type: functional, cell-based; settings: K562, 48 h
[1] = biological target: T1, Histone-lysine N-methyltransferase EHMT2 (Homo sapiens, UniProt Q96KQ7); assay: Inhibition of human G9a expressed in HEK293 cells; type: cell-based
T1 sequence (Q96KQ7 whole entry): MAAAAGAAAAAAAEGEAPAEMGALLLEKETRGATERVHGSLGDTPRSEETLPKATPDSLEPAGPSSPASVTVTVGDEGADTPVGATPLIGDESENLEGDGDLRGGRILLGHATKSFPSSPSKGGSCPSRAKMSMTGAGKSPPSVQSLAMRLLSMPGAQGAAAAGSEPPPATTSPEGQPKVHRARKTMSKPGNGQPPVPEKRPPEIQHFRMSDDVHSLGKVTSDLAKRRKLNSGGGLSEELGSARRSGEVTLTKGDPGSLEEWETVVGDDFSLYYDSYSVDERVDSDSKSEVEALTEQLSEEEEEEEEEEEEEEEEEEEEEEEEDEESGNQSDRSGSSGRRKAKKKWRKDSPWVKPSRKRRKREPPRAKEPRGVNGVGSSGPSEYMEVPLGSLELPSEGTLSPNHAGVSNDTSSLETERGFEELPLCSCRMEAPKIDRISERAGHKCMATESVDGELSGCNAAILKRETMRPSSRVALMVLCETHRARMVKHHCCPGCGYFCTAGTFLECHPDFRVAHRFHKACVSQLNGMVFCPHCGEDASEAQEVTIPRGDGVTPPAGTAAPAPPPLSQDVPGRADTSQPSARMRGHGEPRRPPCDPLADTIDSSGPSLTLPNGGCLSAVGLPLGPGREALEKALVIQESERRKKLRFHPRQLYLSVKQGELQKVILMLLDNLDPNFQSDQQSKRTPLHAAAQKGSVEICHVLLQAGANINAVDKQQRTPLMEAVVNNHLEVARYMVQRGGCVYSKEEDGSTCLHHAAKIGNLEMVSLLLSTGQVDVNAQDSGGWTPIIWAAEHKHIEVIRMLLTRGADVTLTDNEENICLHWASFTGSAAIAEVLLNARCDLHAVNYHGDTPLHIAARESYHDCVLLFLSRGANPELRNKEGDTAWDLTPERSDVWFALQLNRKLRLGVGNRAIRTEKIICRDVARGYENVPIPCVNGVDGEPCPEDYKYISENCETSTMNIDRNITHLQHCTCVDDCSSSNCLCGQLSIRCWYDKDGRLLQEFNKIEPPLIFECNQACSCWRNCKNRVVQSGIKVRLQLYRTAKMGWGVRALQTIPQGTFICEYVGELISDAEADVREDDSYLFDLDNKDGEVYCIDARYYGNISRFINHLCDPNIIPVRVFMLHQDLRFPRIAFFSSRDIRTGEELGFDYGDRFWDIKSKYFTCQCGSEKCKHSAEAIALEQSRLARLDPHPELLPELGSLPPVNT

MCF7 = assay: Antiproliferative activity against human MCF7 cells assessed as reduction in cell viability by MTT assay; type: functional, cell-based
NCI-H1975 = assay: Antiproliferative activity against human NCI-H1975 cells assessed as reduction in cell viability incubated for 48 hrs by MTT assay; settings: NCI-H1975, 48 h
MGC-803 = assay: cells; settings: Homo sapiens, MGC-803, 72 h
[2] = Inhibition of DCN1 (unknown origin) by TR-FRET analysis; design: species or system Homo sapiens
SGC-7901 = assay: cells; settings: Homo sapiens, SGC-7901, 72 h
BGC-823 = assay: cells; settings: Homo sapiens, BGC-823, 72 h
Spermine oxidase = Spermine oxidase (Homo sapiens, UniProt Q9NWM0); assay: Inhibition of SMOX (unknown origin) using spermine as substrate preincubated for 1 hr followed by substrate addition and measured after 20 mins by luminometer analysis
Chain of Spermine oxidase (Q9NWM0 whole entry): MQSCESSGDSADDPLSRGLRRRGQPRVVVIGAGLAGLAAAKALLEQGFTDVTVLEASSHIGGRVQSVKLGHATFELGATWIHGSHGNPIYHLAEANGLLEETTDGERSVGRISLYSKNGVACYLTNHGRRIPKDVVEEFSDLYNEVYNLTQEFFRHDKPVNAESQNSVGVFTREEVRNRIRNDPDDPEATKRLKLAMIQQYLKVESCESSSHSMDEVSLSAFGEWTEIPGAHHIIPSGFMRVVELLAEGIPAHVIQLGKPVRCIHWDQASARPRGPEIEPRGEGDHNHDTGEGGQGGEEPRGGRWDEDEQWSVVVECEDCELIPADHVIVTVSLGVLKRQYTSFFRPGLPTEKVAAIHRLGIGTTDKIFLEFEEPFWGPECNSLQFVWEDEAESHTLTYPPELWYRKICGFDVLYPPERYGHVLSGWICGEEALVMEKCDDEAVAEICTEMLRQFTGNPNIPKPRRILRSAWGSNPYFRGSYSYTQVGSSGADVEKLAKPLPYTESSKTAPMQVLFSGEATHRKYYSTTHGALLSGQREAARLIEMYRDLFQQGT

[3] = biological target: Lysine-specific histone demethylase 1A (Homo sapiens) (UniProt O60341); assay: Inhibition of LSD1 (unknown origin) at 10 uM relative to control
BXPC-3 = assay: Antiproliferative activity against human BXPC-3 cells assessed as reduction in cell viability measured for 72 hrs by CCK-8 assay; type: functional, cell-based; settings: BXPC-3, 72 h
MIA PaCa-2 = assay: Antiproliferative activity against human MIA PaCa-2 cells assessed as reduction in cell viability incubated for 24 hrs by CCK-8 assay; type: functional, cell-based; settings: MIA PaCa-2, 24 h
PC-3 = assay: Growth inhibition of human PC-3 cells assessed as reduction in cell viability by SRB assay; type: functional; settings: time 48 hrs
DU-145 = assay: Antiproliferative activity against human DU-145 cells assessed as cell growth inhibition; type: functional, cell-based

## O=C(NO)c1ccc(CN2CCC(CN[C@@H]3C[C@H]3c3ccccc3)CC2)cc1
Jurkat
  pIC50: 4.81
MOLM-13
  pIC50: 5.89
THP-1
  pIC50: 4.79
K562
  pIC50: 4.78

## CN(C)CCCNc1nc(NC2CCN(Cc3ccccc3)CC2)c2ccccc2n1
[1]
  pIC50: 4.38

## CC/C(=C(/c1ccc(OCCN(C)C)cc1)c1ccc(OC(=O)N(C)CCN(C)C2CC2c2ccccc2)cc1)c1ccccc1 (stereo not drawn)
MCF7
  pIC50: 4.54

## COc1cc2nc(NCCCN(C)C)nc(NC3CCN(Cc4ccccc4)CC3)c2cc1OC
[1]
  pIC50: 6.11

## Cc1cc(Sc2nnnn2CCN(C)C)n2nc(SCc3ccc(Cl)cc3)nc2n1
MGC-803
  pIC50: 6.28
[2]
  pIC50: 7.96
SGC-7901
  pIC50: 6.07
BGC-823
  pIC50: 6.00

## Nc1n[nH]c(NCc2c(Cl)cccc2Oc2ccc(-c3ccccc3)cc2)n1
Spermine oxidase
  pIC50: 4.59
[3]
  inhibition: 52.1%
BXPC-3
  pIC50: < 4.00
MIA PaCa-2
  pIC50: 4.21

## C#CCN(C)Cc1cccc(NC(=O)CCCCCCC(=O)NO)c1
PC-3
  GI50: 0.33 µM
DU-145
  pIC50: 6.38
